The values below come from patent US20110015226A1, “Treatment of Energy Utilization Disease” (SUMMIT CORPORATION PLC, priority 2008, published 2011).

Where “and” joins values, the source holds several entries; their conditions need not be identical. Identical values can stand only once. Like-named read-outs stand apart in the source and are kept apart here.

Data set [1] has as its system β-D-mannosidase Cellullomonas fimi. Put plainly: Glycosidase inhibition: β-D-mannosidase Cellullomonas fimi. Format: biochemical. The note with it: compounds tested at 0.8 mM. On the procedure: (§1) All enzymes and para-nitrophenyl substrates were purchased from Sigma, with the exception of beta-mannosidase which came from Megazyme. Enzymes were assayed at 27° C. in 0.1M citric acid/0.2M disodium hydrogen phosphate buffers at the optimum pH for the enzyme. The incubation mixture consisted of 10 μl enzyme solution, 10 μl of 1 mg/ml aqueous solution of extract and 50 μl of the appropriate 5 mM para-nitrophenyl substrate made up in buffer at the optimum pH for the enzyme. The reactions were stopped by addition of 70 μl 0.4M glycine (pH 10.4) during the exponential phase of the reaction, which had been determined at the beginning using uninhibited assays in which water replaced inhibitor. Final absorbances were read at 405 nm using a Versamax microplate reader (Molecular Devices). Assays were carried out in triplicate, and the values given are means of the three replicates per assay. (See Watson, A. A., Nash, R. J., Wormald, M. R., Harvey, D. J., Dealler, S., Lees, E., Asano, N., Kizu, H., Kato, A., Griffiths, R. C., Cairns, A. J. and Fleet, G. W. J. (1997). Glycosidase-inhibiting pyrrolidine alkaloids from Hyacinthoides non-scripta. Phytochemistry 46 (2): 255-259.)

The subject of data set [2] is N-acetyl-β-D-glucosaminidase (Bovine kidney). Put plainly: Glycosidase inhibition: N-acetyl-β-D-glucosaminidase (Bovine kidney).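 On all read-outs here: enzyme activity followed by cleavage of the matching p-nitrophenyl glycoside (5 mM) in phosphate buffer set to the enzyme's optimal pH.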 It is filed as biochemical. The note with it: for % inhibition, N-acetyl-β-D-glucosaminidase (Bovine kidney): compounds tested at 0.8 mM.
Data set [3] in a line: Solubility in water. Format: physicochemical.
The target of data set [4] is T1, rat intestinal lactase (Rattus norvegicus, UniProt Q02401).
T1 construct: Enzyme activities were prepared from brush border membranes of rat small intestine; from tissue; host or cells: rat small intestine brush border membranes
T1 sequence (Q02401 868-1928): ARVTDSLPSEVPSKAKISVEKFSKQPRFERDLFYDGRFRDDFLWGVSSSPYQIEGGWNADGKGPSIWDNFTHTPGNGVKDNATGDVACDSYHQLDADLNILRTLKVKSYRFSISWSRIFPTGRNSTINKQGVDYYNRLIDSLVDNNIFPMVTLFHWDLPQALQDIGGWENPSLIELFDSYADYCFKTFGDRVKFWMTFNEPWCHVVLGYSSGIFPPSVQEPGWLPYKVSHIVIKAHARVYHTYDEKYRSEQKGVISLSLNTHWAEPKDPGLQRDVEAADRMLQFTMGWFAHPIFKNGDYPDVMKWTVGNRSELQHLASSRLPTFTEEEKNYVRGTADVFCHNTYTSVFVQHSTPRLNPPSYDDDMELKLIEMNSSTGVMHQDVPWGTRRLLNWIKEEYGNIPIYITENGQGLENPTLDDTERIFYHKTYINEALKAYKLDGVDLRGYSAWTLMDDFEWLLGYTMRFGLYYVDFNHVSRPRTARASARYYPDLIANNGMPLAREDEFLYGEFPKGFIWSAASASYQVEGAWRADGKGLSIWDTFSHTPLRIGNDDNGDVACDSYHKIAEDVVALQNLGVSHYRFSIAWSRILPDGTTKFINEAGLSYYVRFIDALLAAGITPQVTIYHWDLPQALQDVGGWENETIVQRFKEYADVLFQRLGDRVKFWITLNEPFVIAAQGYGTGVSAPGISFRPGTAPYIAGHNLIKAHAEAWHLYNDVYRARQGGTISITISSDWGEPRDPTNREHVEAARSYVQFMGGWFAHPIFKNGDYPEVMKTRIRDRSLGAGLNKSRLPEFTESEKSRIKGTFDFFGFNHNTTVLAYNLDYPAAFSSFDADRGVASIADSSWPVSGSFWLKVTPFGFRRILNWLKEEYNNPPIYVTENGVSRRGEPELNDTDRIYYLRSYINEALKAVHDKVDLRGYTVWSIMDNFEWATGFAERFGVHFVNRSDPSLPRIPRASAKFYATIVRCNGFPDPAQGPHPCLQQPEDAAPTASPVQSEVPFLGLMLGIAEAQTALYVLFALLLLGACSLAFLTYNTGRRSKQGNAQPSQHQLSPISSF
Put plainly: Rat intestinal glycosidases: lactase. It is filed as biochemical. The note with it: rat intestinal brush border membranes. Here is the method: (§2) Enzyme activities were prepared from brush border membranes of rat small intestine using disaccharides as substrates as described by Yasuda et al., 2002.

Data set [5] deals with T2, rat intestinal cellobiase (Rattus norvegicus, UniProt Q02401).
T2 construct: Enzyme activities were prepared from brush border membranes of rat small intestine; from tissue; host or cells: rat small intestine brush border membranes
T2 sequence (Q02401 868-1928): as above
Put plainly: Rat intestinal glycosidases: cellobiase. Format: biochemical. The note with it: rat intestinal brush border membranes. Here is the method:
as §2

Data set [6] deals with T3, α-D-mannosidase Jack bean (Canavalia ensiformis, UniProt C0HJB3).
T3 construct: α-D-mannosidase (Jack bean); purchased Sigma
T3 sequence (C0HJB3 1-981): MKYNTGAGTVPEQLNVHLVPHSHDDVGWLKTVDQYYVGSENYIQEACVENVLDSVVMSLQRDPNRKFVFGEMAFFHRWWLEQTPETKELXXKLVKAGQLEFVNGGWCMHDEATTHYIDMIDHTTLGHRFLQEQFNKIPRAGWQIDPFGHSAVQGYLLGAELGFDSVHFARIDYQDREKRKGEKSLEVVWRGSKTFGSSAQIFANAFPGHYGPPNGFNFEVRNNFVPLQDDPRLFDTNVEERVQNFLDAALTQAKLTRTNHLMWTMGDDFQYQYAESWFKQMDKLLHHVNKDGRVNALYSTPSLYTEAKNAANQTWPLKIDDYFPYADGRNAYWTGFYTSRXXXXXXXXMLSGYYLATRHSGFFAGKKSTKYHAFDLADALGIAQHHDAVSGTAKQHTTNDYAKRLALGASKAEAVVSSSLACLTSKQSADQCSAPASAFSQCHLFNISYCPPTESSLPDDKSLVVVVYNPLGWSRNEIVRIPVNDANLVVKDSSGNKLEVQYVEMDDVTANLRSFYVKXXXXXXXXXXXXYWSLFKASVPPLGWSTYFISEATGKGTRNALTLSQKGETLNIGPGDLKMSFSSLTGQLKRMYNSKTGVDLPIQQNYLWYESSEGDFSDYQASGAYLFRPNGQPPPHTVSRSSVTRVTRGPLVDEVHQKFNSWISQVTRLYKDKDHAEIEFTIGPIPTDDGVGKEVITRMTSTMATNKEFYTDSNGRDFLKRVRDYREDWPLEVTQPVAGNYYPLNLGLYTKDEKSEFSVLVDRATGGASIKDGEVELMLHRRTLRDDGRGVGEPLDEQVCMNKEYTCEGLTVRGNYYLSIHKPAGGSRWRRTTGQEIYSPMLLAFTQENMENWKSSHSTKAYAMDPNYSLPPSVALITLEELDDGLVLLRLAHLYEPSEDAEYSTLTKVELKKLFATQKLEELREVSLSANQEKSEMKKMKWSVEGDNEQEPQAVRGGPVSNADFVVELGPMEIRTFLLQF
Put plainly: Glycosidase inhibition: α-D-mannosidase Jack bean. It is filed as biochemical. The note with it: compounds tested at 0.8 mM.

Data set [7] has as its system N-acetyl-β-D-glucosaminidase (Jack bean). Description: Glycosidase inhibition: N-acetyl-β-D-glucosaminidase (Jack bean). The note with it: compounds tested at 0.8 mM. It is filed as biochemical.
Description: (§3) The results tabulated below were obtained using commercially available glycosidases and p-nitrophenyl-substrates using standard methods described for example by Watson et al (1997) Phytochemistry 46 255-259. All enzymes and substrates were bought from Sigma. Enzyme and substrate solutions were made using sodium phosphate buffers at the pH optima values. The enzymes used were α-D-glucosidase Saccharomyces cerevisiae, Bacillus stearothermophilus, Oryzae sativa), β-D-glucosidase (Almond), α-D-mannosidase (Jack bean), α-D-galactosidase (Green coffee beans), β-D-galactosidase (Bovine liver), α-L-fucosidase (Bovine kidney), N-acetyl-β-D-glucosaminidase (Bovine kidney, Jack bean, Aspergillus oryzae), Naringinase (Penicillium decumbens) and amyloglucosidase (Aspergillus niger). All enzymes were used with the appropriate p-nitrophenyl substrates (5 mM). Amyloglucosidase activity was measured using amylopectin (0.1%) (Merck) mixed with sodium phosphate buffer, pH 4.5 in a glass bottle, and healed in a boiling water bath for 20 minutes to dissolve with released glucose measured using ‘Trinder’ glucose detection solution (Sigma).
as §1, with “(See Watson, A. A., Nash, R. J., Wormald, M. R., Harvey, D. J., Dealler, S., Lees, E., Asano, N., Kizu, H., Kato, A., Griffiths, R. C., Cairns, A. J. and Fleet, G. W. J. (1997). Glycosidase-inhibiting pyrrolidine alkaloids from Hyacinthoides non-scripta. Phytochemistry 46 (2): 255-259.)” left out

Data set [8] addresses rat intestinal maltase. Description: Rat intestinal glycosidases: maltase. It is filed as biochemical. The note with it: rat intestinal brush border membranes. On the procedure: as §2
Data set [9] can be described thus: Storage stability. Format: physicochemical. The note with it: all normal laboratory storage conditions.
Data set [10] has as its target iduronidase (Homo sapiens, UniProt P35475). The note with it: Booth et al. (2007) and references therein; cited from earlier work.
The subject of data set [11] is Naringinase Penicillium decumbens. Put plainly: Glycosidase inhibition: Naringinase Penicillium decumbens. Format: biochemical. The note with it: compounds tested at 0.8 mM.
Description: as §3
as §1, with “(See Watson, A. A., Nash, R. J., Wormald, M. R., Harvey, D. J., Dealler, S., Lees, E., Asano, N., Kizu, H., Kato, A., Griffiths, R. C., Cairns, A. J. and Fleet, G. W. J. (1997). Glycosidase-inhibiting pyrrolidine alkaloids from Hyacinthoides non-scripta. Phytochemistry 46 (2): 255-259.)” left out

The test system of data set [12] is α-glucosidases. Put plainly: Inhibition of α-glucosidases (summary statement). Format: biochemical. The note with it: only just reaching 50% inhibition at nearly mM concentration.
Description: as §3

In data set [13] the test system is β-D-glucosidase (Almond). Description: Glycosidase inhibition: β-D-glucosidase (Almond). Format: biochemical. The note with it: compounds tested at 0.8 mM.
Description: as §3
as §1, with “(See Watson, A. A., Nash, R. J., Wormald, M. R., Harvey, D. J., Dealler, S., Lees, E., Asano, N., Kizu, H., Kato, A., Griffiths, R. C., Cairns, A. J. and Fleet, G. W. J. (1997). Glycosidase-inhibiting pyrrolidine alkaloids from Hyacinthoides non-scripta. Phytochemistry 46 (2): 255-259.)” left out

Data set [14] deals with glucuronidase (Homo sapiens, UniProt P08236). The note with it: Booth et al. (2007) and references therein; cited from earlier work.
glucuronidase, sequence (P08236 23-651): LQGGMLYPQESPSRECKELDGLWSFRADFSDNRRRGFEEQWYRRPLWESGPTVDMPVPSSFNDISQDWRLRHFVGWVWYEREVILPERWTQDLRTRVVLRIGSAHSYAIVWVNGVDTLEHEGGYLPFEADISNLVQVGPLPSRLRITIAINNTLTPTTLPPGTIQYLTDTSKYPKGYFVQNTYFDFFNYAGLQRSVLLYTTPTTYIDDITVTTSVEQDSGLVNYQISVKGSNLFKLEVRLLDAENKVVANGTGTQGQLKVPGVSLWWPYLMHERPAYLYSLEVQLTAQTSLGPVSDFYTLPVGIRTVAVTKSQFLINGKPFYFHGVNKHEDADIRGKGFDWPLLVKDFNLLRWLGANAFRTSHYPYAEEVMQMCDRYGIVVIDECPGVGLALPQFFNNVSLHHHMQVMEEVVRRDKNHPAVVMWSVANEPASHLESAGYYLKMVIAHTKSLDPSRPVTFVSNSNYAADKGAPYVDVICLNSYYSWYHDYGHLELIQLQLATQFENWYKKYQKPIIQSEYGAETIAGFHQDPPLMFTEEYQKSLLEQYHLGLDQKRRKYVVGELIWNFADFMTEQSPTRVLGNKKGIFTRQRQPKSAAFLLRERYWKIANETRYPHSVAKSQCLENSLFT
For data set [15], the target named is rat intestinal trehalase (Rattus norvegicus, UniProt G3V7Q9). Description: Rat intestinal glycosidases: trehalase. Format: biochemical. The note with it: rat intestinal brush border membranes. On the procedure: as §2
rat intestinal trehalase, sequence (G3V7Q9 21-553): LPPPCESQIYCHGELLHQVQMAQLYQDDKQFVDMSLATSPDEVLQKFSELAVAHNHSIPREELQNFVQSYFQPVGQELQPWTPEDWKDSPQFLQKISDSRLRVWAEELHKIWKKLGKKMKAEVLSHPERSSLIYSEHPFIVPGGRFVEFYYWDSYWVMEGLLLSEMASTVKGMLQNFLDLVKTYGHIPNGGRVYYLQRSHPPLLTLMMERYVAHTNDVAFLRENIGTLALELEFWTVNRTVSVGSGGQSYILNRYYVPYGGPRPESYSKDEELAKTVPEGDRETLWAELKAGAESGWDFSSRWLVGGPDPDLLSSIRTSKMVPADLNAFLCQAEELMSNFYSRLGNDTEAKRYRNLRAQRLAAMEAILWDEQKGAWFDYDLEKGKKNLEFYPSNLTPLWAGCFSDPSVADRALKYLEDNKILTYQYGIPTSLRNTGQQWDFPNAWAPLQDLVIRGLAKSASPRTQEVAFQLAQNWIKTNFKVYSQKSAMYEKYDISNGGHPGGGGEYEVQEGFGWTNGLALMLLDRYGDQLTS
Data set [16] has as its target T4, rat intestinal sucrase (Rattus norvegicus, UniProt P23739).
T4 construct: Enzyme activities were prepared from brush border membranes of rat small intestine; from tissue; host or cells: rat small intestine brush border membranes
Put plainly: Rat intestinal glycosidases: sucrase. It is filed as biochemical. The note with it: rat intestinal brush border membranes. Here is the method: as §2

Data set [17] addresses rat intestinal maltase. The note with it: from Yasuda et al., 2002; cited from earlier work.

T4 sequence (P23739 whole entry): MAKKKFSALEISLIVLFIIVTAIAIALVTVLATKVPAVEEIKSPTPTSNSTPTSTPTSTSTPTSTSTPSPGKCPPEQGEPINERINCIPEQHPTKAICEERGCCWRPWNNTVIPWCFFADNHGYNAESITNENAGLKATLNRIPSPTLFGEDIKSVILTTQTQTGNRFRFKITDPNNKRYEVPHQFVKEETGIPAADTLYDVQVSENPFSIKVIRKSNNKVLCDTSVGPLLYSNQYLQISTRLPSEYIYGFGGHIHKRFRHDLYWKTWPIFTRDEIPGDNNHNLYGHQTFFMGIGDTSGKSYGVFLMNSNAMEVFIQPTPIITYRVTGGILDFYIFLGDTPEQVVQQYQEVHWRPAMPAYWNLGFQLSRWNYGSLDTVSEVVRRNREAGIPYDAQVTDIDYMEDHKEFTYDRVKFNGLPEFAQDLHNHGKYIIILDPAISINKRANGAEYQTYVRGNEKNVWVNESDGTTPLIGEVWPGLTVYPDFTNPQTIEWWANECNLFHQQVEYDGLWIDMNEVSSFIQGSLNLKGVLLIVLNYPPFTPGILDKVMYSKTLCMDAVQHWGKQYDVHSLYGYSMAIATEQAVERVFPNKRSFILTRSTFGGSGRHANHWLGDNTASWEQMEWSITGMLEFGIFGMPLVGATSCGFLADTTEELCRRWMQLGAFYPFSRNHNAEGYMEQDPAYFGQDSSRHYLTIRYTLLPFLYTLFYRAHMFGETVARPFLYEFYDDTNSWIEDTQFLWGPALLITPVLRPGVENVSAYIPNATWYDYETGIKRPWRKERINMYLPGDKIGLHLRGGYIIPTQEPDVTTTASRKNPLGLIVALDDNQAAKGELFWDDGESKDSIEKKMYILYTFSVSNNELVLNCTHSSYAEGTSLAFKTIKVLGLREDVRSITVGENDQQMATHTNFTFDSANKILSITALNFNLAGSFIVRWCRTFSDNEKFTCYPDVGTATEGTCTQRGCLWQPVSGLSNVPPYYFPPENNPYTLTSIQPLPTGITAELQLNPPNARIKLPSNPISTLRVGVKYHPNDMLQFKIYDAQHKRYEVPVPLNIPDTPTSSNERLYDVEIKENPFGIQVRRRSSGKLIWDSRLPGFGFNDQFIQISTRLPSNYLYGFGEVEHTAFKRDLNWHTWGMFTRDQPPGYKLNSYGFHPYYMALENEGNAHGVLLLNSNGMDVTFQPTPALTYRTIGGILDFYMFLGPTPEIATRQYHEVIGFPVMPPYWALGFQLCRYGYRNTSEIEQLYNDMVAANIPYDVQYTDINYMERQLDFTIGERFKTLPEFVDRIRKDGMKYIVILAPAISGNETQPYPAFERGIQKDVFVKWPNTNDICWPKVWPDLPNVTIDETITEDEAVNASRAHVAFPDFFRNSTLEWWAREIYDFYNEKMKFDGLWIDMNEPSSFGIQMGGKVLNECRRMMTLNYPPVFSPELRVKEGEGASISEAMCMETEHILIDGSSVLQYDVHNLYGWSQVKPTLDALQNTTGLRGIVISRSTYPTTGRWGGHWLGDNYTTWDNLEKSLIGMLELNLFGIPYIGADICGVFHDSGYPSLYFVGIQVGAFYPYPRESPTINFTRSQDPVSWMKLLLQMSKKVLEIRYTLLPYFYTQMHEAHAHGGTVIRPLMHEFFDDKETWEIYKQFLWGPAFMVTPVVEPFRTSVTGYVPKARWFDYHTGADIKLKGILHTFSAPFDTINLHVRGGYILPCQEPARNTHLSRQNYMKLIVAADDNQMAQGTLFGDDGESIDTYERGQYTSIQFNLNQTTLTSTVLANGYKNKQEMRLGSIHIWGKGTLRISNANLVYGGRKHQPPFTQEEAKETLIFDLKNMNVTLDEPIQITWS
iduronidase, sequence (P35475 28-653): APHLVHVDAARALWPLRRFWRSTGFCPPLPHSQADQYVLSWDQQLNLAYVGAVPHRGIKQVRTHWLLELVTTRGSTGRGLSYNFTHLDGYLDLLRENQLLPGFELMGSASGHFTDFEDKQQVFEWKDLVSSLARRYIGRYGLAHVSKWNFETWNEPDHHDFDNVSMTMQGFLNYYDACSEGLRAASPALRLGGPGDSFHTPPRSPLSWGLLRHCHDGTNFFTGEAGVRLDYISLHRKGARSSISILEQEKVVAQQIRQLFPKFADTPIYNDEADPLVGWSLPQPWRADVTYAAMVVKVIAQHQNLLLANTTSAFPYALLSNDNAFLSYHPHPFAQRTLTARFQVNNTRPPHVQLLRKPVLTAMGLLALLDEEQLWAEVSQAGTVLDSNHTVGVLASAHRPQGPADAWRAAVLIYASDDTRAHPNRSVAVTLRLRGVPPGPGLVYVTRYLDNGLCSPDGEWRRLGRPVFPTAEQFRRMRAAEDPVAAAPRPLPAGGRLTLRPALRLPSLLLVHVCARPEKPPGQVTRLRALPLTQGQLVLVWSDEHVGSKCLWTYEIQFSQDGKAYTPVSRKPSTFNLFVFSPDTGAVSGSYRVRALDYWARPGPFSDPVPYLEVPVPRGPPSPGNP

For `O=C(O)[C@H]1NC[C@H](O)[C@@H](O)[C@@H]1O` [Compound G2, 2S,3R,4R,5S-trihydroxypiperidine-2-carboxylic acid], the “% inhibition, β-D-mannosidase Cellullomonas fimi” value in [1] is given as “NI (NI = no inhibition)”. Moreover, in data set [2], the “% inhibition, N-acetyl-β-D-glucosaminidase (Bovine kidney)” value is given as “NI (NI = no inhibition)”. Besides, the solubility in water result in data set [3] is “freely soluble”. Further, the IC50 in data set [4], in data set [5], in [8], in [15] and in [16] was over 1000 µM in each case. In [6], this compound returned an inhibition at 800 µM of 29%. In addition, in data set [7], the “% inhibition, N-acetyl-β-D-glucosaminidase (Jack bean)” value is given as 10%. For the same compound, in data set [9], the stability entry is “stable”. In addition, the inhibition of iduronidase result in data set [10] was “weak inhibitor”. Further, the “% inhibition, Naringinase Penicillium decumbens” value in data set [11] is given as “NI (NI = no inhibition)”. For the same compound, in [12], the “inhibition of α-glucosidases” value is given as “very weak inhibitor”. Besides, the “% inhibition, β-D-glucosidase (Almond)” value in data set [13] is “NI (NI = no inhibition)”. For the same compound, in data set [14], the inhibition of glucuronidase result was “weak inhibitor”.

Compound `O=C(O)CN1[C@H](CO)[C@@H](O)[C@H](O)[C@H]1CO` [Compound S2, 2-((2R,3R,4R,5R)-3,4-Dihydroxy-2,5-bis(hydroxymethyl)pyrrolidin-1-yl)acetic acid] displayed an inhibition at 800 µM in data set [6] of under 50%. For the same compound, in [13], the “% inhibition, β-D-glucosidase (Almond)” value was 55%.

On to `O=C(O)CCN1C[C@H](O)[C@@H](O)[C@H](O)[C@H]1CO` [Compound T1], for which the “% inhibition, N-acetyl-β-D-glucosaminidase (Bovine kidney)” value in [2] came out at 86.1%. Further, the half-maximal inhibitory concentration (IC50) in data set [2] (read-out: IC50, N-acetyl-β-D-glucosaminidase (Bovine kidney)) turned out to be 32.2 µM; in [2] (read-out: IC50 against mammalian 6-N-acetylglucosaminidase (hexosaminidase)), 32 µM. In [6], this compound had an inhibition at 800 µM of under 50%.

As for `CCCCOC(=O)[C@@H]1[C@@H](O)[C@H](O)[C@@H](O)CN1CCCC` [Compound T2, (2S,3R,4R,5S)-Butyl 1-butyl-3,4,5-trihydroxypiperidine-2-carboxylate], the inhibition at 800 µM in data set [6] was under 50%.

As to `OC[C@H]1NC[C@H](O)[C@@H](O)[C@@H]1O` [DNJ, 1-deoxynojirimycin, reference compound], in data set [6], the “% inhibition, α-D-mannosidase Jack bean” value amounted to 27% and at 800 µM the inhibition was 26%. Also, the “% inhibition, N-acetyl-β-D-glucosaminidase (Jack bean)” value in [7] is listed as “NI (NI = no inhibition)”. In addition, the “% inhibition, Naringinase Penicillium decumbens” value in data set [11] was 20% and 21%. In data set [17], the IC50 is 0.36 µM.

In general, IC50 refers to the concentration at which inhibition is half-maximal. Broadly, the inhibition is the drop in the measured response relative to a control, in per cent.
